{"source": "patent US20250230193A1", "about": "“CYCLIC COMPOUND HAVING SELECTIVE KRAS INHIBITORY EFFECT ON HRAS AND NRAS” (CHUGAI SEIYAKU KABUSHIKI KAISHA, priority 2022, published 2025)", "key": {"[1]": {"target": "GDP-bound HRAS wild-type protein (Homo sapiens, UniProt P01112)", "sequence (P01112 whole entry)": "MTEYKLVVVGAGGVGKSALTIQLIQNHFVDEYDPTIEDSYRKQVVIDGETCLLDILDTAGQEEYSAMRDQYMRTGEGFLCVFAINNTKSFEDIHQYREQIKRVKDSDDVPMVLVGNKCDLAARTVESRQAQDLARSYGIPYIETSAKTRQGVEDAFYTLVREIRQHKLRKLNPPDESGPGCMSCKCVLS", "assay": "Binding to HRAS by surface plasmon resonance (SPR), Single Cycle Kinetics", "details": "for HRAS/KRAS (ratio of KD value with respect to HRAS to KD value with respect to KRAS) / HRAS/KRAS (ratio of KD value for HRAS to KD value for KRAS): GDP-bound HRAS wild-type vs GDP-bound KRAS wild-type"}, "[2]": {"target": "GDP-bound NRAS wild-type protein (Homo sapiens, UniProt P01111)", "sequence (P01111 whole entry)": "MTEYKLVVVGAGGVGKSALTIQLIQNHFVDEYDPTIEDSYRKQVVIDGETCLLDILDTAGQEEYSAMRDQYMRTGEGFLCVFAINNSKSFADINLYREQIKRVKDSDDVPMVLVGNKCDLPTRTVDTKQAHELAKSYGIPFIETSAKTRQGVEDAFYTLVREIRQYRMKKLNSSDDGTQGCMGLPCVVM", "assay": "Binding to NRAS by surface plasmon resonance (SPR), Single Cycle Kinetics", "details": "for NRAS/KRAS (ratio of KD value with respect to NRAS to KD value with respect to KRAS) / NRAS/KRAS (ratio of KD value for NRAS to KD value for KRAS): GDP-bound NRAS wild-type vs GDP-bound KRAS wild-type"}, "[3]": {"details": "SPR, GDP-bound wild-type proteins"}}, "data": [{"compound": "CCC[C@H]1C(=O)N[C@@H]([C@@H](C)CC)C(=O)N(C)CC(=O)N(C)[C@H]2C/C=C\\CCN(C2=O)[C@@H](Cc2ccc(C(F)(F)F)cc2)C(=O)N(C)CC(=O)N[C@@H](CCc2ccc(C(F)(F)F)c(OC)c2)C(=O)N2C[C@H](OCC)C[C@H]2C(=O)N(C)C2(CCC2)C(=O)N(C)[C@@H](C2CCCC2)C(=O)N(C)[C@H](C(=O)N(C)C)CC(=O)N1C", "note": "[PP2312]", "values": [{"measurement": "HRAS/KRAS (ratio of KD value with respect to HRAS to KD value with respect to KRAS)", "setting": "[1]; SPR", "value": "B (a compound having 3 or more and less than 10 is denoted as B)"}, {"measurement": "NRAS/KRAS (ratio of KD value with respect to NRAS to KD value with respect to KRAS)", "setting": "[2]; SPR", "value": "A (a compound having 10 or more and less than 20 is denoted as A)"}]}, {"compound": "CC[C@H](C)[C@@H]1NC(=O)[C@H](CC(C)C)N(C)C(=O)C[C@@H](C(=O)N2CCOCC2)N(C)C(=O)[C@H](C2CCCC2)N(C)C(=O)C2(CCCC2)NC(=O)[C@@H]2CCCN2C(=O)[C@H](CCc2ccc(C(F)(F)F)c(Cl)c2)NC(=O)CN(C)C(=O)[C@H](Cc2ccc(OC(F)(F)F)cc2)N2C/C=C\\CC[C@@H](C2=O)N(C)C(=O)CN(C)C1=O", "note": "[PP0610]", "values": [{"measurement": "HRAS/KRAS (ratio of KD value with respect to GDP-bound HRAS wild-type protein to KD value with respect to KRAS)", "setting": "[1]; SPR", "value": "B (a compound having 3 or more and less than 10 is denoted as B)"}, {"measurement": "NRAS/KRAS (ratio of KD value with respect to GDP-bound NRAS wild-type protein to KD value with respect to KRAS)", "setting": "[2]; SPR", "value": "B (a compound having 3 or more and less than 10 is denoted as B)"}]}, {"compound": "CCC[C@H]1C(=O)N[C@@H]([C@@H](C)CC)C(=O)N2C[C@@H](OC)C[C@H]2C(=O)N(C)[C@H]2C/C=C\\CCN(C2=O)[C@@H](Cc2ccc(C)cc2)C(=O)N(C)CC(=O)N[C@@H](CCc2ccc(C(F)(F)F)c(OC)c2)C(=O)N2C[C@@H](C)C[C@H]2C(=O)NC2(CC(C)(C)C2)C(=O)N(C)[C@@H](C2CCCC2)C(=O)N(C)[C@H](C(=O)N(C)C)CC(=O)N1C", "note": "[PP2388]", "values": [{"measurement": "HRAS/KRAS (ratio of KD value with respect to HRAS to KD value with respect to KRAS)", "setting": "[1]; SPR", "value": "B (a compound having 3 or more and less than 10 is denoted as B)"}, {"measurement": "NRAS/KRAS (ratio of KD value with respect to NRAS to KD value with respect to KRAS)", "setting": "[2]; SPR", "value": "A (a compound having 10 or more and less than 20 is denoted as A)"}]}, {"compound": "CCC(CC)[C@H]1C(=O)N(C)[C@H](C(=O)N(C)C)CC(=O)N(C)[C@@H](COC)C(=O)N[C@@H]([C@@H](C)CC)C(=O)N(C)CC(=O)N(C)[C@H]2C/C=C\\CCN(C2=O)[C@@H](Cc2ccc(C)cc2)C(=O)N(C)CC(=O)N[C@@H](CCc2ccc(Cl)c(Cl)c2)C(=O)N2CC3(CC3)C[C@H]2C(=O)N(C)C2(CC(C)(C)C2)C(=O)N1C", "note": "[PP2820]", "values": [{"measurement": "HRAS/KRAS (ratio of KD value with respect to GDP-bound HRAS wild-type protein to KD value with respect to KRAS)", "setting": "[1]; class symbols", "value": "A (a compound having 10 or more and less than 20 is denoted as A)"}, {"measurement": "NRAS/KRAS (ratio of KD value with respect to GDP-bound NRAS wild-type protein to KD value with respect to KRAS)", "setting": "[2]; class symbols", "value": "AA (a compound having 20 or more is denoted as AA)"}]}, {"compound": "CCO[C@@H]1C[C@H]2C(=O)NC3(CCC3)C(=O)N(C)[C@@H](C3CCCC3)C(=O)N(C)[C@H](C(=O)N(C)C)CC(=O)N(C)[C@@H](Cc3cccc(C#N)c3)C(=O)N[C@@H]([C@@H](C)CC)C(=O)N(C)CC(=O)N(C)[C@H]3CCCCCN(C3=O)[C@@H](Cc3ccc(C(F)(F)F)cc3)C(=O)N(C)CC(=O)N[C@@H](CCc3cc(F)c(C(F)(F)F)c(F)c3)C(=O)N2C1", "note": "[PP1172]", "values": [{"measurement": "HRAS/KRAS (ratio of KD value with respect to HRAS to KD value with respect to KRAS)", "setting": "[1]; KD ratio, SPR", "value": "B (a compound having 3 or more and less than 10 is denoted as B)"}, {"measurement": "NRAS/KRAS (ratio of KD value with respect to NRAS to KD value with respect to KRAS)", "setting": "[2]; KD ratio, SPR", "value": "B (a compound having 3 or more and less than 10 is denoted as B)"}]}, {"compound": "CCO[C@@H]1C[C@H]2C(=O)NC3(CCC3)C(=O)N(C)[C@@H](C3CCCC3)C(=O)N3CCC[C@@H]3CC(=O)N(C)[C@@H](CC3CC3)C(=O)N[C@@H]([C@@H](C)CC)C(=O)N(C)CC(=O)N(C)[C@H]3C/C=C\\CCN(C3=O)[C@@H](Cc3ccc(C(F)(F)F)cc3)C(=O)N(C)CC(=O)N[C@@H](CCc3ccc(C(F)(F)F)c(OC)c3)C(=O)N2C1", "note": "[PP1616]", "values": [{"measurement": "HRAS/KRAS (ratio of KD value for HRAS to KD value for KRAS)", "setting": "[1]; KD ratio, SPR", "value": "B (a compound having 3 or more and less than 10 is denoted as B)"}, {"measurement": "NRAS/KRAS (ratio of KD value for NRAS to KD value for KRAS)", "setting": "[2]; KD ratio, SPR", "value": "B (a compound having 3 or more and less than 10 is denoted as B)"}]}, {"compound": "CCOC[C@H]1C(=O)N[C@@H]([C@@H](C)CC)C(=O)N2CCC[C@H]2C(=O)N(C)[C@H]2C/C=C\\CCN(C2=O)[C@@H](Cc2ccc(C)cc2)C(=O)N(C)CC(=O)N[C@@H](CCc2cc(F)c(C(F)(F)F)c(F)c2)C(=O)N2C[C@H](OCC)C[C@H]2C(=O)NC2(CC(C)(C)C2)C(=O)N(C)[C@@H](C2CCCC2)C(=O)N(C)[C@H](C(=O)N(C)CC)CC(=O)N1C", "note": "[PP2428]", "values": [{"measurement": "HRAS/KRAS (ratio of KD value with respect to HRAS to KD value with respect to KRAS)", "setting": "[1]; SPR", "value": "A (a compound having 10 or more and less than 20 is denoted as A)"}, {"measurement": "NRAS/KRAS (ratio of KD value with respect to NRAS to KD value with respect to KRAS)", "setting": "[2]; SPR", "value": "A (a compound having 10 or more and less than 20 is denoted as A)"}]}, {"compound": "CCC[C@H]1C(=O)N[C@@H]([C@@H](C)CC)C(=O)N(C)CC(=O)N(C)[C@H]2C/C=C\\CCN(C2=O)[C@@H](Cc2ccc(C)cc2)C(=O)N(C)CC(=O)N[C@@H](CCc2ccc(C(F)(F)F)c(Cl)c2)C(=O)N2C[C@H](C)C[C@H]2C(=O)NC2(CC(C)(C)C2)C(=O)N(C)[C@@H](C2CCCC2)C(=O)N(C)[C@H](C(=O)N(C)CC)CC(=O)N1C", "note": "[PP1894]", "values": [{"measurement": "HRAS/KRAS (ratio of KD value for HRAS to KD value for KRAS)", "setting": "[1]; KD ratio, SPR", "value": "A (a compound having 10 or more and less than 20 is denoted as A)"}, {"measurement": "NRAS/KRAS (ratio of KD value for NRAS to KD value for KRAS)", "setting": "[2]; KD ratio, SPR", "value": "A (a compound having 10 or more and less than 20 is denoted as A)"}]}, {"compound": "CCO[C@@H]1C[C@H]2C(=O)NC3(CCC3)C(=O)N(C)[C@@H](C3CCCC3)C(=O)N(CC)[C@H](C(=O)N3CCOCC3)CC(=O)N(C)[C@@H](CCOC)C(=O)N[C@@H]([C@@H](C)CC)C(=O)N(C)CC(=O)N(C)[C@H]3CCCCCN(C3=O)[C@@H](Cc3ccc(C(F)(F)F)cc3)C(=O)N(C)CC(=O)N[C@@H](CCc3cc(F)c(C(F)(F)F)c(F)c3)C(=O)N2C1", "note": "[PP0947]", "values": [{"measurement": "HRAS/KRAS (ratio of KD value with respect to HRAS to KD value with respect to KRAS)", "setting": "[1]; KD ratio, SPR", "value": "A (a compound having 10 or more and less than 20 is denoted as A)"}, {"measurement": "NRAS/KRAS (ratio of KD value with respect to NRAS to KD value with respect to KRAS)", "setting": "[2]; KD ratio, SPR", "value": "A (a compound having 10 or more and less than 20 is denoted as A)"}]}, {"compound": "CCO[C@@H]1C[C@H]2C(=O)NC3(CCCC3)C(=O)N(C)[C@@H](C3CCCC3)C(=O)N(C)[C@H](C(=O)N(C)C)CC(=O)N(C)[C@@H](CC(C)C)C(=O)N[C@@H]([C@@H](C)CC)C(=O)N(C)CC(=O)N(C)[C@H]3C/C=C\\CCN(C3=O)[C@@H](Cc3ccc(C)cc3)C(=O)N(C)CC(=O)N[C@@H](CCc3ccc(C(F)(F)F)c(OC)c3)C(=O)N2C1", "note": "[PP2197]", "values": [{"measurement": "HRAS/KRAS (ratio of KD value with respect to HRAS to KD value with respect to KRAS)", "setting": "[1]; SPR", "value": "B (a compound having 3 or more and less than 10 is denoted as B)"}, {"measurement": "NRAS/KRAS (ratio of KD value with respect to NRAS to KD value with respect to KRAS)", "setting": "[2]; SPR", "value": "A (a compound having 10 or more and less than 20 is denoted as A)"}]}, {"compound": "CC[C@H](C)[C@@H]1NC(=O)[C@@H]2CCC/C=C/c3ccc(cc3)C[C@@H](C(=O)N(C)CC(=O)N[C@@H](CCc3ccc(Cl)c(Cl)c3)C(=O)N3C[C@H](OC4CCC4)C[C@H]3C(=O)NC3(CC(C)(C)C3)C(=O)N(C)[C@@H](C3CCCC3)C(=O)N(C)[C@H](C(=O)N(C)CC)CC(=O)N2C)N2CC/C=C\\C[C@@H](C2=O)N(C)C(=O)CN(C)C1=O", "note": "[PP3058]", "values": [{"measurement": "HRAS/KRAS (ratio of KD value with respect to GDP-bound HRAS wild-type protein to KD value with respect to KRAS)", "setting": "[1]; [3]", "value": "A (a compound having 10 or more and less than 20 is denoted as A)"}, {"measurement": "NRAS/KRAS (ratio of KD value with respect to GDP-bound NRAS wild-type protein to KD value with respect to KRAS)", "setting": "[2]; [3]", "value": "A (a compound having 10 or more and less than 20 is denoted as A)"}]}]}
